Results published in ChEMBL document CHEMBL4340524, “Design and synthesis of a novel 1H-pyrrolo[3,2-b]pyridine-3-carboxamide derivative as an orally available ACC1 inhibitor” (Bioorg Med Chem, 2019).
pIC50: −log10 of the molar value. Values after ≈ are worked out from the molar mass of the structure shown. Active and inactive are the calls of the source. No cut-off for these calls is given here.

What was measured:
Acetyl-CoA carboxylase 1 [1] = molecular target: T1, Acetyl-CoA carboxylase 1 (Homo sapiens, UniProt Q13085); test: Inhibition of recombinant human ACC1 expressed in Sf9 cells at 10 uM using acetyl Co-A as substrate preincubated for 60 mins followed by substrate addition and measured after 30 mins by RapidFire-Mass spectrometry relative to control
Acetyl-CoA carboxylase 2 [2] = molecular target: T2, Acetyl-CoA carboxylase 2 (Homo sapiens, UniProt O00763); test: Inhibition of recombinant human ACC2 expressed in Sf9 cells at 10 uM using acetyl Co-A as substrate preincubated for 60 mins followed by substrate addition and measured after 30 mins by RapidFire-Mass spectrometry relative to control
Target sequence in this assay (O00763 whole entry, looked up): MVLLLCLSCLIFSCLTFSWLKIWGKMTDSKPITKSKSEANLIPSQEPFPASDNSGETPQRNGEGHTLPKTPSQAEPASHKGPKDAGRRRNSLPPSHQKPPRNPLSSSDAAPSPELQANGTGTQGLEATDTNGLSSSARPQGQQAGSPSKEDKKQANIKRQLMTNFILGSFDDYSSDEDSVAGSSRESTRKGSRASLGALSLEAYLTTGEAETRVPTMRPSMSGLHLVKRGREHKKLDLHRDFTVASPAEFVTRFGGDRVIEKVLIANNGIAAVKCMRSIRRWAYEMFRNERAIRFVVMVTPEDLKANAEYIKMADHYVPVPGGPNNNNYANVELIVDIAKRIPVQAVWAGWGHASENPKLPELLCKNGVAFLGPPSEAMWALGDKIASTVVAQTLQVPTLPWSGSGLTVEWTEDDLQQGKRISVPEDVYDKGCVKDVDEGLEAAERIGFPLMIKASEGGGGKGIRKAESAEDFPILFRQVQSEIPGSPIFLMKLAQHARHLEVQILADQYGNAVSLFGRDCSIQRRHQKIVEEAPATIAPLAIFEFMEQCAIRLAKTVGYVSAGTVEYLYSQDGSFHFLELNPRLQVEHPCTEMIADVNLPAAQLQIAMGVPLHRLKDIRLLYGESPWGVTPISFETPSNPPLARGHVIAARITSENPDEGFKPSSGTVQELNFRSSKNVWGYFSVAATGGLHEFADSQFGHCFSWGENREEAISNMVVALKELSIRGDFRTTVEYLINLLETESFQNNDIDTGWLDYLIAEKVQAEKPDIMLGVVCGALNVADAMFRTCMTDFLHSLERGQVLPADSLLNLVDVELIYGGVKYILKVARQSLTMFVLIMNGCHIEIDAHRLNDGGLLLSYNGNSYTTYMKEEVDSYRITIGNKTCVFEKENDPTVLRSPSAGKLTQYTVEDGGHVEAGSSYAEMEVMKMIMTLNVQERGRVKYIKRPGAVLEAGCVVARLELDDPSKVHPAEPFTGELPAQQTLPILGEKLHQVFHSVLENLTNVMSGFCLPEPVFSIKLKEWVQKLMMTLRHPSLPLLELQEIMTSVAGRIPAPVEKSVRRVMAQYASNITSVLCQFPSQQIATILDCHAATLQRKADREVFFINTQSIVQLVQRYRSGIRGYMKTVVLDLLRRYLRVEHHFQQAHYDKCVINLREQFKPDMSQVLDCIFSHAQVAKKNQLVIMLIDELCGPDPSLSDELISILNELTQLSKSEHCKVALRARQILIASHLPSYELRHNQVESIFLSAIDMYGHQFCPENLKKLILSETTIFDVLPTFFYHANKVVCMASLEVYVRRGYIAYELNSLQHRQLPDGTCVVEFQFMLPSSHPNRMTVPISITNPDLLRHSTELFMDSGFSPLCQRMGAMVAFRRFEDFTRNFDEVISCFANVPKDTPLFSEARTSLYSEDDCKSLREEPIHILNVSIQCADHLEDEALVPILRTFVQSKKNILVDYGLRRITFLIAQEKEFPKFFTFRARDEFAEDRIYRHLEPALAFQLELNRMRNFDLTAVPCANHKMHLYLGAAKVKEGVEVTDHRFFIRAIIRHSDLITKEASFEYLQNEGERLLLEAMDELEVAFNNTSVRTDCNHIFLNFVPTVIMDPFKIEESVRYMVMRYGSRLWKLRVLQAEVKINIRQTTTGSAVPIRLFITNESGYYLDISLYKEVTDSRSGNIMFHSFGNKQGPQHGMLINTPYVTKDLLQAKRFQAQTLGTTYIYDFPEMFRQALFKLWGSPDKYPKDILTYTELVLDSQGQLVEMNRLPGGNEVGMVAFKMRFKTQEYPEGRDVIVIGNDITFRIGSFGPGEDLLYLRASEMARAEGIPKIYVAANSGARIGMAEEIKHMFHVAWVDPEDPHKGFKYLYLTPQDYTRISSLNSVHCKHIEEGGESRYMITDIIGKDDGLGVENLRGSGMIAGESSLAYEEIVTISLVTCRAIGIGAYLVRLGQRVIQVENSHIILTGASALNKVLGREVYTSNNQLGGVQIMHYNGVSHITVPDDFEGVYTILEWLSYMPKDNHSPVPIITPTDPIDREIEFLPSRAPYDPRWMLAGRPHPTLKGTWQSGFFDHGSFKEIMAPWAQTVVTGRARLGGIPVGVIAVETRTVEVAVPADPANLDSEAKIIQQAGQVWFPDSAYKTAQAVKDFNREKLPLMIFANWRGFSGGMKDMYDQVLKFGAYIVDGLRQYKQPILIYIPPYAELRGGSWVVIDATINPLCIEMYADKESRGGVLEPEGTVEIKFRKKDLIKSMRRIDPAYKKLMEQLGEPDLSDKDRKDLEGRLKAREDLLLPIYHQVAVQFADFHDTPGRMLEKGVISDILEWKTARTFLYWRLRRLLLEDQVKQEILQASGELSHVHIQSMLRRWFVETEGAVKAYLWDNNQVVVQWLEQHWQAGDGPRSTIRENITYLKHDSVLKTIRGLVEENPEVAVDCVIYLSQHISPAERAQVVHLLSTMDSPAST

Acetyl-CoA carboxylase 1 [3] = molecular target: T1, Acetyl-CoA carboxylase 1; test: Inhibition of recombinant human ACC1 expressed in Sf9 cells using acetyl Co-A as substrate preincubated for 60 mins followed by substrate addition and measured after 30 mins by RapidFire-Mass spectrometry
Acetyl-CoA carboxylase 2 [4] = molecular target: T2, Acetyl-CoA carboxylase 2; test: Inhibition of recombinant human ACC2 expressed in Sf9 cells using acetyl Co-A as substrate preincubated for 60 mins followed by substrate addition and measured after 30 mins by RapidFire-Mass spectrometry
Target sequence in this assay (O00763 whole entry): as the sequence (O00763 whole entry, looked up) above

Acetyl-CoA carboxylase 1 [5] = molecular target: T1, Acetyl-CoA carboxylase 1; test: Inhibition of ACC1 in human HCT116 cells assessed as reduction in [14C]acetate uptake preincubated for 60 mins followed by [14C]acetate addition and measured after 2 hrs by top count scintillation counting method; type: cell-based
[6] = Solubility of the compound in pH 6.8 aqueous buffer by HPLC analysis; type: physicochemical
[7] = AUC (0 to 8 hrs) in ICR mouse at 0.1 mg/kg, iv or 1 mg/kg, po administered as cassette dose by LC-MS/MS analysis; type: ADME, organism-based; details: in vivo
[8] = Oral bioavailability in ICR mouse at 1 mg/kg administered as cassette dose by LC-MS/MS analysis; type: ADME, organism-based; details: in vivo
Homo sapiens = species: Homo sapiens; test: Selectivity ratio of IC50 for recombinant human ACC2 expressed in Sf9 cells to IC50 for recombinant human ACC1 expressed in Sf9 cells
Mus musculus = test: In vivo inhibition of ACC1 in BALB/cA Jc1-nu/nu mouse xenografted with human HCT116 cells assessed as suppression of malonyl-CoA synthesis at 100 mg/kg, po administered as single dose measured after 16 hrs by RPLC-MS/MS analysis; type: functional, organism-based

Row | inhibition (Acetyl-CoA carboxylase 1 [1]) [%] | inhibition (Acetyl-CoA carboxylase 2 [2]) [%] | pIC50 (Acetyl-CoA carboxylase 1 [3]) | pIC50 (Acetyl-CoA carboxylase 2 [4]) | pIC50 (Acetyl-CoA carboxylase 1 [5]) | solubility [6] [µg/mL] | AUC(0-t) [7] [ng·h/mL] | bioavailability [8] [%] | Compound | Ratio IC50 (Homo sapiens) | inhibition (Mus musculus)
1 | 69 | – | – | – | – | – | – | – | Cn1cc(C(=O)Nc2ccc3[nH]ccc3c2)c2ncc(-c3ccccc3)cc21 | – | –
2 | 26 | – | – | – | – | – | – | – | Cn1cc(C(=O)Nc2ccc3c(cnn3C)c2)c2ncc(-c3ccccc3)cc21 | – | –
3 | 51 | 31 | – | – | – | – | – | – | Cn1cc(C(=O)Nc2ccc3[nH]cnc3c2)c2ncc(-c3ccccc3)cc21 | – | –
4 | -7 | -8 | – | – | – | – | – | – | O=C(Nc1ccc2[nH]ncc2c1)c1c[nH]c2cc(-c3ccccc3)ccc12 | – | –
5 | – | – | 6.68 | 5.66 | 6.31 | – | – | – | CC(C)n1cc(C(=O)Nc2ccc3[nH]ncc3c2)c2ncc(-c3ccc(N)cc3)cc21 | – | –
6 | 99 | 83 | 6.09 | 5.40 | 6.37 | 60 (≈ 163 µM) | 189 | 39.3 | Cn1cc(C(=O)Nc2ccc3[nH]ncc3c2)c2ncc(-c3ccccc3)cc21 | 5 | –
7 | 7 | 6 | – | – | – | – | – | – | CN(C(=O)c1cn(C)c2cc(-c3ccccc3)cnc12)c1ccc2[nH]ncc2c1 | – | –
8 | – | – | 6.77 | 5.70 | 6.82 | – | 647 | 63.2 | CC(C)n1cc(C(=O)Nc2cc3cn[nH]c3cc2F)c2ncc(-c3ccc(N)cc3)cc21 | – | Active
9 | – | – | 6.00 | 5.43 | 6.89 | < 60 | 653 | 57.7 | CCn1cc(C(=O)Nc2ccc3[nH]ncc3c2)c2ncc(-c3ccccc3)cc21 | – | –
10 | 45 | 4 | – | – | – | – | – | – | O=C(Nc1ccc2[nH]ncc2c1)c1c[nH]c2cc(-c3ccccc3)cnc12 | – | –

Row | Compound | inhibition (Acetyl-CoA carboxylase 1 [1]) [%] | inhibition (Acetyl-CoA carboxylase 2 [2]) [%] | pIC50 (Acetyl-CoA carboxylase 1 [3]) | pIC50 (Acetyl-CoA carboxylase 2 [4]) | pIC50 (Acetyl-CoA carboxylase 1 [5]) | solubility [6] [µg/mL] | AUC(0-t) [7] [ng·h/mL] | bioavailability [8] [%] | Ratio IC50 (Homo sapiens) | inhibition (Mus musculus)
11 | CC(C)n1cc(C(=O)Nc2ccc3[nH]ncc3c2)c2ncc(-c3ccccc3)cc21 | – | – | 5.80 | 5.19 | < 6.00 | 3200 (≈ 8090 µM) | 1700 | 59.8 | – | –
